# Assay results: US10472347B2, “Aminopyrazine compounds with A2A antagonist properties” (Merck Sharp & Dohme Corp., priority 2014, dated 2019)
# Molecular target: T1, human A2a receptor (Homo sapiens, UniProt P29274)
# T1 construct: purchased Perkin-Elmer RBHA2AM400UA; host or cells: HEK293 cells (membranes)
# Assay: A2a competition binding assay, Scintillation Proximity technology
# Conditions: membranes from HEK293 cells expressing human A2a receptor; Ki by Cheng-Prusoff equation
# Procedure, shortened: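 SPA competition: 0.5 nM tritiated pyrazolotriazolopyrimidine ligand displaced by compound at 3000 to 0.15 nM, 1 h room temperature, human A2a HEK293 membranes pretreated with adenosine deaminase, PBS/10 mM MgCl2 buffer. CGS15943 1 μM defined non-specific binding; EC50 converted to Ki via Cheng-Prusoff.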
# T1 sequence (P29274 whole entry): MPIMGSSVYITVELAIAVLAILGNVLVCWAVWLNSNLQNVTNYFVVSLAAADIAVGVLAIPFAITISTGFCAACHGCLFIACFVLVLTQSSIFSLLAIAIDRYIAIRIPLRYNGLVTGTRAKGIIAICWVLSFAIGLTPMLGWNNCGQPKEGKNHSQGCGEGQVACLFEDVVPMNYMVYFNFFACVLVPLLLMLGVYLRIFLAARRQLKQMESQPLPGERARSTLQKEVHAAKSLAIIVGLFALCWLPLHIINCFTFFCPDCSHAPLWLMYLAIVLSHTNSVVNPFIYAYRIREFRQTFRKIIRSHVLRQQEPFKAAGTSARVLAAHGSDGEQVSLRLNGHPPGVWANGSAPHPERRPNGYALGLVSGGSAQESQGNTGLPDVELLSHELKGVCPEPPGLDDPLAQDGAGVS
row,Compound,Ki
1,"Cc1cnn(-c2nc(N)c(C(=O)NCc3cccc4cccnc34)nc2Cl)n1 [Ex-348, 3-amino-6-chloro-5-(4-methyl-2H-1,2,3-triazol-2-yl)-N-(quinolin-8-ylmethyl)pyrazine-2-carboxamide]",0.0101 µM
2,"Cc1cnn(-c2nc(N)c(C(=O)N[C@H](CO)c3ccccc3)nc2Cl)c1 [Ex-349, 3-amino-6-chloro-N-[(1S)-2-hydroxy-1-phenylethyl]-5-(4-methyl-1H-pyrazol-1-yl)pyrazine-2-carboxamide]",0.18 µM
3,"Cc1cnn(-c2nc(N)c(C(=O)NCc3ccc4[nH]ccc4c3)nc2Cl)c1 [Ex-350, 3-amino-6-chloro-N-(1H-indol-5-ylmethyl)-5-(4-methyl-1H-pyrazol-1-yl)pyrazine-2-carboxamide]",0.63 µM
4,"Cc1cnn(-c2nc(N)c(C(=O)NCc3cccc4cc[nH]c34)nc2Cl)c1 [Ex-352, 3-amino-6-chloro-N-(1H-indol-7-ylmethyl)-5-(4-methyl-1H-pyrazol-1-yl)pyrazine-2-carboxamide]",0.0511 µM
5,"Cc1cnn(-c2nc(N)c(C(=O)NCc3cccc4[nH]ccc34)nc2Cl)c1 [Ex-353, 3-amino-6-chloro-N-(1H-indol-4-ylmethyl)-5-(4-methyl-1H-pyrazol-1-yl)pyrazine-2-carboxamide]",0.049 µM
6,"Cc1cnn(-c2nc(N)c(C(=O)NCc3ccc4cc[nH]c4c3)nc2Cl)c1 [Ex-354, 3-amino-6-chloro-N-(1H-indol-6-ylmethyl)-5-(4-methyl-1H-pyrazol-1-yl)pyrazine-2-carboxamide]",0.39 µM
7,"Cc1cnn(-c2nc(N)c(C(=O)NCc3nc4ccccc4s3)nc2Cl)c1 [Ex-355, 3-amino-N-(1,3-benzothiazol-2-ylmethyl)-6-chloro-5-(4-methyl-1H-pyrazol-1-yl)pyrazine-2-carboxamide]",0.543 µM
8,"Cc1cnn(-c2nc(N)c(C(=O)NCc3cccc4nccnc34)nc2Cl)c1 [Ex-357, 3-amino-6-chloro-5-(4-methyl-1H-pyrazol-1-yl)-N-(quinoxalin-5-ylmethyl)pyrazine-2-carboxamide]",0.0694 µM
9,"Cc1cnn(-c2nc(N)c(C(=O)NCc3cn4ccsc4n3)nc2Cl)c1 [Ex-359, 3-amino-6-chloro-N-(imidazo[2,1-b][1,3]thiazol-6-ylmethyl)-5-(4-methyl-1H-pyrazol-1-yl)pyrazine-2-carboxamide]",0.09 µM
10,"Cc1cnn(-c2nc(N)c(C(=O)NCc3cnc4ccccn34)nc2Cl)c1 [Ex-360, 3-amino-6-chloro-N-(imidazo[1,2-a]pyridin-3-ylmethyl)-5-(4-methyl-1H-pyrazol-1-yl)pyrazine-2-carboxamide]",0.615 µM
11,"Cc1cnn(-c2nc(N)c(C(=O)NCc3cncc4ccccc34)nc2Cl)c1 [Ex-361, 3-amino-6-chloro-N-(isoquinolin-4-ylmethyl)-5-(4-methyl-1H-pyrazol-1-yl)pyrazine-2-carboxamide]",0.0632 µM
12,"Cc1cnn(-c2nc(N)c(C(=O)NCc3cnn4ccccc34)nc2Cl)c1 [Ex-362, 3-amino-6-chloro-5-(4-methyl-1H-pyrazol-1-yl)-N-(pyrazolo[1,5-a]pyridin-3-ylmethyl)pyrazine-2-carboxamide]",0.143 µM
13,"Cc1cccnc1CNC(=O)c1nc(C)c(-c2nc(C)c(C)o2)nc1N [Ex-381, 3-amino-5-(4,5-dimethyl-1,3-oxazol-2-yl)-6-methyl-N-[(3-methylpyridin-2-yl)methyl]pyrazine-2-carboxamide]",0.0805 µM
14,"COCc1coc(-c2nc(N)c(C(=O)NCc3ncccc3C)nc2C)n1 [Ex-382, 3-amino-5-[4-(methoxymethyl)-1,3-oxazol-2-yl]-6-methyl-N-[(3-methylpyridin-2-yl)methyl]pyrazine-2-carboxamide]",0.0384 µM
15,"Cc1cnc(-c2nc(N)c(C(=O)NCc3ncccc3C)nc2C)o1 [Ex-383, 3-amino-6-methyl-5-(5-methyl-1,3-oxazol-2-yl)-N-[(3-methylpyridin-2-yl)methyl]pyrazine-2-carboxamide]",0.0064 µM
16,"N#Cc1nc(C(=O)NCc2cccc3cccnc23)c(N)nc1-n1cccn1 [Ex-385, 3-amino-6-cyano-5-(1H-pyrazol-1-yl)-N-(quinolin-8-ylmethyl)pyrazine-2-carboxamide]",0.0006 µM

# Results, then the compound that gave them:
row,Ki,Compound
1,0.315 µM,"Cc1cnn(-c2nc(N)c(C(=O)NCc3nc4ccccc4n3C)nc2Cl)c1 [Ex-351, 3-amino-6-chloro-N-[(1-methyl-1H-benzimidazol-2-yl)methyl]-5-(4-methyl-1H-pyrazol-1-yl)pyrazine-2-carboxamide]"
2,0.0043 µM,"Cc1cnn(-c2nc(N)c(C(=O)NCc3nc4ccccc4o3)nc2Cl)c1 [Ex-356, 3-amino-N-(1,3-benzoxazol-2-ylmethyl)-6-chloro-5-(4-methyl-1H-pyrazol-1-yl)pyrazine-2-carboxamide]"
3,0.0733 µM,"Cc1cnn(-c2nc(N)c(C(=O)NCc3ccccc3)nc2Cl)c1 [Ex-358, 3-amino-N-benzyl-6-chloro-5-(4-methyl-1H-pyrazol-1-yl)pyrazine-2-carboxamide]"
4,0.0005 µM,"Cc1cnn(-c2nc(N)c(C(=O)NCc3cccc4c3C(=O)NC4)nc2Cl)c1 [Ex-363, 3-amino-6-chloro-5-(4-methyl-1H-pyrazol-1-yl)-N-[(3-oxo-2,3-dihydro-1H-isoindol-4-yl)methyl]pyrazine-2-carboxamide]"
5,1.49 µM,"Cc1cccnc1CNC(=O)c1nc(C)c(-c2nc(C(F)(F)F)co2)nc1N [Ex-379, 3-amino-6-methyl-N-[(3-methylpyridin-2-yl)methyl]-5-[4-(trifluoromethyl)-1,3-oxazol-2-yl]pyrazine-2-carboxamide]"
6,0.000384 µM,"Cc1coc(-c2nc(N)c(C(=O)NCc3ncccc3C)nc2C)n1 [Ex-380, 3-amino-6-methyl-5-(4-methyl-1,3-oxazol-2-yl)-N-[(3-methylpyridin-2-yl)methyl]pyrazine-2-carboxamide]"
7,0.0637 µM,"Cc1cccnc1CNC(=O)c1nc(C)c(-c2ncc(C(F)(F)F)o2)nc1N [Ex-384, 3-amino-6-methyl-N-[(3-methylpyridin-2-yl)methyl]-5-[5-(trifluoromethyl)-1,3-oxazol-2-yl]pyrazine-2-carboxamide]"
8,0.0003 µM,"N#Cc1nc(C(=O)NCc2ncccc2C(F)(F)F)c(N)nc1-c1ncco1 [Ex-386, 3-amino-6-cyano-5-(1,3-oxazol-2-yl)-N-{[3-(trifluoromethyl)pyridin-2-yl]methyl}pyrazine-2-carboxamide]"
9,0.0028 µM,"Cc1cnn(-c2nc(N)c(C(=O)NCc3cccc4cccnc34)nc2C(F)F)c1 [Ex-387, 3-amino-6-(difluoromethyl)-5-(4-methyl-1H-pyrazol-1-yl)-N-(quinolin-8-ylmethyl)pyrazine-2-carboxamide]"
10,0.0025 µM,"Nc1nc(-n2nccn2)c(CO)nc1C(=O)NCc1cccc2cccnc12 [Ex-388, 3-amino-6-(hydroxymethyl)-N-(quinolin-8-ylmethyl)-5-(2H-1,2,3-triazol-2-yl)pyrazine-2-carboxamide]"
